Assay [1] has as its system Pomc homozygous knock-out mice. The assay is described as follows: Anti-obesity efficacy in high fat diet POMC homozygous deficient mouse model. Particulars: 45 kcal % high-fat diet, 10 mg/kg or 30 mg/kg for about 10 days, FIG. 2. It is filed as in vivo. The protocol:
Pomc homozygous knock-out mice, in which the Pomc gene encoding proopiomelanocortin (POMC) is not expressed, were administered with the test compound at a dose of 10 mg/kg or 30 mg/kg for about 10 days while fed a 45 kcal % high-fat diet (diet with 45 kcal % fat) to determine the anti-obesity efficacy, and the results are shown in FIG. 2.

Assay [2] relates to Pomc heterozygous knock-out mice. The assay is described as follows: Anti-obesity efficacy in high fat diet POMC heterozygous deficient mouse model. The format is in vivo. Particulars: 60 kcal % high-fat diet, 10 mg/kg or 30 mg/kg for about 3 weeks, FIG. 1. The protocol:
Pomc heterozygous knock-out mice, in which the Pomc gene encoding proopiomelanocortin (POMC) is not normally expressed, were fed a 60 kcal % high-fat diet (diet with 60 kcal % fat), while administering N-((3S,5S)-1-((3S,4R)-1-(tert-butyl)-4-(4-chlorophenyl)pyrrolidine-3-carbonyl)-5-(morpholine-4-carbonyl)pyrrolidin-3-yl)-N-((1s,4R)-4-methylcyclohexyl)isobutyramide hydrochloride (hereinafter referred to as “test compound”) obtained from the example of preparation at a dose of 10 mg/kg or 30 mg/kg for about 3 weeks to determine the anti-obesity efficacy, and the results are shown in FIG. 1.

As for `CC(C)C(=O)N([C@H]1C[C@@H](C(=O)N2CCOCC2)N(C(=O)[C@@H]2CN(C(C)(C)C)C[C@H]2c2ccc(Cl)cc2)C1)[C@H]1CC[C@@H](C)CC1.Cl` [test compound, N-((3S,5S)-1-((3S,4R)-1-(tert-butyl)-4-(4-chlorophenyl)pyrrolidine-3-carbonyl)-5-(morpholine-4-carbonyl)pyrrolidin-3-yl)-N-((1s,4R)-4-methylcyclohexyl)isobutyramide hydrochloride], the anti-obesity efficacy entry in assay [1] and in assay [2] was “excellent anti-obesity effects” each time.

Values taken from patent US20250134898A1, “USE OF MELANOCORTIN-4 RECEPTOR AGONIST IN PREVENTING OR TREATING RARE GENETIC OBESITY DISEASE” (LG CHEM, LTD., priority 2022, published 2025).
